We go through 15 compounds from patent US10821115B2, “Compounds that inhibit Mcl-1 protein” (priority 2017, dated 2020).

Read-outs that look alike come from different tables or passages of the source.

Assay [1] relates to human multiple myeloma cell line, OPM-2. As to the kind of experiment: Cell viability assay (OPM-2 10 FBS), CellTiter-Glo. In kind it is cell-based. In outline:
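Serially diluted test compounds are incubated 16 h with cells (3000/well) in RPMI 1640 supplemented with 10% FBS. Viability is then measured by luminescence and IC50 calculated by 4-parameter logistic fit.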

Assay [2] deals with recombinant human Mcl-1 (residues 171-327) / Bim interaction (Homo sapiens (Human), UniProt Q07820). Description: biochemical. As to conditions: read-out: Mcl-1 HTRF IC50. In kind it is binding. On the technique in general: In TR-FRET formats the signal depends on donor and acceptor labels being close together.
Sequence of recombinant human Mcl-1 (residues 171-327) / Bim interaction (Q07820 171-327): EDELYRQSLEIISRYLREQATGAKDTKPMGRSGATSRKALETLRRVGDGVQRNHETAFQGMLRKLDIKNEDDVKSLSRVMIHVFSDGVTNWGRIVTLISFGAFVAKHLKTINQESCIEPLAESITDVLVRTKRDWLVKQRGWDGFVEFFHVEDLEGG
The mark [3] stands for this setting: Homo sapiens, OPM-2, 16 h, read-out: OPM-2 10% FBS IC50 IP, OPM-2 cells, 10% FBS, 16 h, CellTiter-Glo.
[4] abbreviates: TR-FRET, Mcl-1(171-327) / biotin-Bim (51-76).
[5] abbreviates: Homo sapiens, OPM-2, 16 h, read-out: OPM-2 10% FBS IC50 IP, OPM-2 cells, 10% FBS, 16 h incubation.
Setting [6] is: 0.1 nM Mcl-1(171-327), 0.05 nM biotin-Bim (51-76).
[7] abbreviates: read-out: OPM-2 10% FBS IC50 IP, OPM-2 cells, 10% FBS, 16 h, CellTiter-Glo.

By IC50 is commonly meant the point on the concentration scale where inhibition reaches its midpoint. Consider `CC[C@@H]1CCCC[C@](O)(COC)[C@@H]2CC[C@H]2CN2C[C@@]3(CCCc4cc(Cl)ccc43)COc3ccc(cc32)C(=O)NS1(=O)=O` [Example 100040, (1S,3′R,6′R,7′R,12′R)-6-chloro-12′-ethyl-7′-hydroxy-7′-(methoxymethyl)-3,4-dihydro-2H,15′H-spiro[naphthalene-1,22′-[20]oxa[13]thia[1,14]diazatetracyclo [14.7.2.0~3,6~.0~19,24~]pentacosa[16,18,24]trien]-15′-one 13′,13′-dioxide], for which the IC50 in assay [1] (setting [3]) was 4950 nM; in assay [2] (setting [4]), 2.75 nM.
Taken in the same sequence, the figures for `C/C=C/C[C@]1(OC)/C=C/C[C@H](C)[C@@H](C)S(=O)(=O)NC(=O)c2ccc3c(c2)N(C[C@@H]2CC[C@H]21)C[C@@]1(CCCc2cc(Cl)ccc21)CO3` [Example 100438, (1S,3′R,6′R,7′S,8′E,11′S,12′R)-7′-((2E)-2-buten-1-yl)-6-chloro-7′-methoxy-11′,12′-dimethyl-3,4-dihydro-2H,15′H-spiro[naphthalene-1,22′-[20]oxa[13]thia[1,14]diazatetracyclo [14.7.2.0~3,6~.0~19,24~]pentacosa[8,16,18,24]tetraen]-15′-one 13′,13′-dioxide] were 547 nM and 0.169 nM.
As for `C[C@@H]1[C@@H](C)C/C=C/[C@@](O)(CC(=O)N2CCOCC2)[C@@H]2CC[C@H]2CN2C[C@@]3(CCCc4cc(Cl)ccc43)COc3ccc(cc32)C(=O)NS1(=O)=O` [Example 100085, (1S,3′R,6′R,7′S,8′E,11′S,12′R)-6-chloro-7′-hydroxy-11′,12′-dimethyl-7′-(2-(4-morpholinyl)-2-oxoethyl)-3,4-dihydro-2H,15′H-spiro[naphthalene-1,22′-[20]oxa[13]thia[1,14]diazatetracyclo [14.7.2.0~3,6~.0~19,24~]pentacosa[8,16,18,24]tetraen]-15′-one 13′,13′-dioxide], the IC50 in assay [1] (setting [3]) is 288 nM; in assay [2], 0.245 nM.
In the case of `CO[C@@]1(CN2CC3(C2)CS(=O)(=O)C3)/C=C/C[C@H](C)[C@@H](C)S(=O)(=O)NC(=O)c2ccc3c(c2)N(C[C@@H]2CC[C@H]21)C[C@@]1(CCCc2cc(Cl)ccc21)CO3` [Example 202, (1S,3′R,6′R,7′S,8′E,11′S,12′R)-6-chloro-7′-((2,2-dioxido-2-thia-6-azaspiro[3 .3]hept-6-yl)methyl)-7′-methoxy-11′,12′-dimethyl-3,4-dihydro-2H,15′H-spiro[naphthalene-1,22′-[20]oxa[13]thia[1,14]diazatetracyclo [14.7.2.0~3,6~.0~19,24~]pentacosa[8,16,18,24]tetraen]-15′-one 13′,13′-dioxide], the IC50 in assay [1] (setting [5]) was 142 nM; in assay [2] (setting [6]), 0.058 nM.
Take `CO[C@@]1(CN2CCN3CCOC[C@@H]3C2)/C=C/C[C@H](C)[C@@H](CCN2CCOCC2)S(=O)(=O)NC(=O)c2ccc3c(c2)N(C[C@@H]2CC[C@H]21)C[C@@]1(CCCc2cc(Cl)ccc21)CO3` [Example 361, (1S,3′R,6′R,7′S,8′E,11′S,12′R)-6-chloro-7′-((9aS)-hexahydropyrazino[2,1-c][1,4]oxazin-8(1H)-ylmethyl)-7′-methoxy-11′-methyl-12′-(2-(4-morpholinyl)ethyl)-3,4-dihydro-2H,15′H-spiro[naphthalene-1,22′-[20]oxa[13]thia[1,14]diazatetracyclo [14.7.2.0~3,6~.0~19,24~]pentacosa[8,16,18,24]tetraen]-15′-one 13′,13′-dioxide]: the 50% inhibitory concentration (IC50) is 28 nM in assay [1] (setting [5]) and 0.101 nM in assay [2] (setting [6]).
For `COC[C@@H]1[C@@H](C)C/C=C/[C@](CN2CCN(C3COC3)CC2)(OC)[C@@H]2CC[C@H]2CN2C[C@@]3(CCCc4cc(Cl)ccc43)COc3ccc(cc32)C(=O)NS1(=O)=O` [Example 170, (1S,3′R,6′R,7′S,8′E,11′S,12′S)-6-chloro-7′-methoxy-12′-(methoxymethyl)-11′-methyl-7′-((4-(3-oxetanyl)-1-piperazinyl)methyl)-3,4-dihydro-2H,15′H-spiro[naphthalene-1,22′-[20]oxa[13]thia[1,14]diazatetracyclo [14.7.2.0~3,6~.0~19,24~]pentacosa[8,16,18,24]tetraen]-15′-one 13′,13′-dioxide], in that order: 75 nM and 0.131 nM.
For `CO[C@@]1(CN2CCN(C3CN(C)C3)CC2)/C=C/C[C@H](C)[C@@H](C)S(=O)(=O)NC(=O)c2ccc3c(c2)N(C[C@@H]2CC[C@H]21)C[C@@]1(CCCc2cc(Cl)ccc21)CO3` [Example 282, (1S,3′R,6′R,7′S,8′E,11′S,12′R)-6-chloro-7′-methoxy-11′,12′-dimethyl-7′-((4-(1-methyl-3-azetidinyl)-1-piperazinyl)methyl)-3,4-dihydro-2H,15′H-spiro[naphthalene-1,22′-[20]oxa[13]thia[1,14]diazatetracyclo [14.7.2.0~3,6~.0~19,24~]pentacosa[8,16,18,24]tetraen]-15′-one 13′,13′-dioxide], in that order: 486 nM and 0.118 nM.
As to `C[C@@H]1[C@@H](C)C/C=C/[C@](O)(c2cncnc2)[C@@H]2CC[C@H]2CN2C[C@@]3(CCCc4cc(Cl)ccc43)COc3ccc(cc32)C(=O)NS1(=O)=O` [Example 100410, (1S,3′R,6′R,7′R,8′E,11′S,12′R)-6-chloro-7′-hydroxy-11′,12′-dimethyl-7′-(5-pyrimidinyl)-3,4-dihydro-2H,15′H-spiro[naphthalene-1,22′-[20]oxa[13]thia[1,14]diazatetracyclo [14.7.2.0~3,6~.0~19,24~]pentacosa[8,16,18,24]tetraen]-15′-one 13′,13′-dioxide], the IC50 in assay [1] (setting [3]) stood at 297 nM; in assay [2] (setting [4]) it was 0.127 nM.
As for `CC#C[C@@]1(O)/C=C/C[C@H](C)[C@@H](C)S(=O)(=O)NC(=O)c2ccc3c(c2)N(C[C@@H]2CC[C@H]21)C[C@@]1(CCCc2cc(Cl)ccc21)CO3` [Example 100498, (1S,3′R,6′R,7′R,8′E,11′S,12′R)-6-chloro-7′-hydroxy-11′,12′-dimethyl-7′-(1-propyn-1-yl)-3,4-dihydro-2H,15′H-spiro[naphthalene-1,22′-[20]oxa[13]thia[1,14]diazatetracyclo [14.7.2.0~3,6~.0~19,24~]pentacosa[8,16,18,24]tetraen]-15′-one 13′,13′-dioxide], the IC50 was found to be 1660 nM in assay [1] (setting [3]) and 0.885 nM in assay [2].
Turning to `CO[C@@]1(CN2CCC3(CCOC3)CC2)/C=C/C[C@H](C)[C@@H](C)S(=O)(=O)NC(=O)c2ccc3c(c2)N(C[C@@H]2CC[C@H]21)C[C@@]1(CCCc2cc(Cl)ccc21)CO3` [Example 265, (1S,3′R,6′R,7′S,8′E,11′S,12′R)-6-chloro-7′-methoxy-11′,12′-dimethyl-7′-(2-oxa-8-azaspiro[4.5]dec-8-ylmethyl)-3,4-dihydro-2H,15′H-spiro[naphthalene-1,22′-[20]oxa[13]thia[1,14]diazatetracyclo [14.7.2.0~3,6~.0~19,24~]pentacosa[8,16,18,24]tetraen]-15′-one 13′,13′-dioxide], the IC50 in assay [1] (setting [5]) amounted to 578 nM; in assay [2] (setting [6]), 0.423 nM.
Turning to `CC[C@@H]1CCCC[C@@](O)(COC)[C@@H]2CC[C@H]2CN2C[C@@]3(CCCc4cc(Cl)ccc43)COc3ccc(cc32)C(=O)NS1(=O)=O` [Example 100039, (1S,3′R,6′R,7′S,12′R)-6-chloro-12′-ethyl-7′-hydroxy-7′-(methoxymethyl)-3,4-dihydro-2H,15′H-spiro[naphthalene-1,22′-[20]oxa[13]thia[1,14]diazatetracyclo [14.7.2.0~3,6~.0~19,24~]pentacosa[16,18,24]trien]-15′-one 13′,13′-dioxide], the IC50 in assay [1] (setting [3]) worked out at 744 nM; in assay [2] (setting [4]), 0.563 nM.
Regarding `CC#C[C@]1(O)CCC[C@H](C)[C@@H](C)S(=O)(=O)NC(=O)c2ccc3c(c2)N(C[C@@H]2CC[C@H]21)C[C@@]1(CCCc2cc(Cl)ccc21)CO3` [Example 100267, (1S,3′R,6′R,7′S,11′S,12′R)-6-chloro-7′-hydroxy-11′,12′-dimethyl-7′-(1-propyn-1-yl)-3,4-dihydro-2H,15′H-spiro[naphthalene-1,22′-[20]oxa[13]thia[1,14]diazatetracyclo [14.7.2.0~3,6~.0~19,24~]pentacosa[16,18,24]trien]-15′-one 13′,13′-dioxide], the IC50 in assay [1] (setting [7]) is 274 nM; in assay [2], 0.166 nM.
In the case of `C[C@@H]1[C@@H](C)CCC[C@@](O)(Cc2nccs2)[C@@H]2CC[C@H]2CN2C[C@@]3(CCCc4cc(Cl)ccc43)COc3ccc(cc32)C(=O)NS1(=O)=O` (single isomer, unassigned) [Example 100250], the IC50 came to 82 nM in assay [1] (setting [7]) and 0.136 nM in assay [2] (setting [4]).
Taken in the same sequence, the figures for `C[C@@H]1[C@@H](C)CCC[C@@](O)(CS(=O)(=O)N2CCN(C)CC2)[C@@H]2CC[C@H]2CN2C[C@@]3(CCCc4cc(Cl)ccc43)COc3ccc(cc32)C(=O)NS1(=O)=O` [Example 100138, (1S,3′R,6′R,7′S,11′S,12′R)-6-chloro-7′-hydroxy-11′,12′-dimethyl-7′-(((4-methyl-1-piperazinyl)sulfonyl)methyl)-3,4-dihydro-2H,15′H-spiro[naphthalene-1,22′-[20]oxa[13]thia[1,14]diazatetracyclo [14.7.2.0~3,6~.0~19,24~]pentacosa[16,18,24]trien]-15′-one 13′,13′-dioxide] were 342 nM and 0.549 nM.
As for `C[C@@H]1[C@@H](C)CCC[C@@](O)(C[C@H]2CCCN(C)C2)[C@@H]2CC[C@H]2CN2C[C@@]3(CCCc4cc(Cl)ccc43)COc3ccc(cc32)C(=O)NS1(=O)=O` (single isomer, unassigned) [Example 100398], the IC50 came out at 457 nM in assay [1] (setting [3]) and 0.618 nM in assay [2] (setting [4]).
